Consider 14 molecules from BindingDB's records for doi:10.1021/jm801427r (Universita Di Pisa, 2009).

This assay addresses T1, Adenosine deaminase (Bos taurus, UniProt P56658).
T1 sequence (P56658 whole entry): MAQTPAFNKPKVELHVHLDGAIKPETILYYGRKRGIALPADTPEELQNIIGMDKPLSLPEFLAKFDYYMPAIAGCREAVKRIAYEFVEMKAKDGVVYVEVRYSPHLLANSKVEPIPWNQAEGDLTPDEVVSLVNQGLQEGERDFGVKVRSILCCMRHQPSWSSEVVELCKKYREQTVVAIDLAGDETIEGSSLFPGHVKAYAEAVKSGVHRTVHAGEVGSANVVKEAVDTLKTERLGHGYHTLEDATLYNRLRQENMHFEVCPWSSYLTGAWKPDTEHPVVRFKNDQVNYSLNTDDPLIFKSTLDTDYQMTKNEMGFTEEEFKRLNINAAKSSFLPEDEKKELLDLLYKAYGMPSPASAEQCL
The experiment in a line: ADA Enzyme Inhibition Assay. Particulars: pH 7.2; 30 °C. As for the experimental part: The activity of ADA was determined spectrophotometrically by monitoring the change in absorbance at 262 nm, due to the deamination of adenosine catalyzed by the enzyme. The change in adenosine concentration per min was determined using a Beckman DU-64 kinetics software program (Solf Pack TM Module). To correct for the background change in absorption, a reference blank containing all the assay components except the substrate was prepared. Each inhibitor concentration was tested in triplicate. The IC50 values were determined by linear regression analysis of dose-response curves. The Ki values were calculated from IC50 values by means of the Cheng and Prusoff.

pKi: −log10 of the molar value.

One may read the pKi as the Ki on a negative log10 scale, so that one unit is a factor of ten. A low value points to a high Ki.

Regarding `O=C(Nc1ccc(Cn2cc3c(=O)[nH]cnc3n2)cc1)c1ccc(F)cc1` [4-fluoro-N-[4-({4-oxo-2H,4H,5H-pyrazolo[3,4-d]pyrimidin-2-yl}methyl)phenyl]benzamide], the pKi is 9.02. `O=C(Nc1ccc(Cn2cc3c(=O)[nH]cnc3n2)cc1)Nc1ccc(OCc2ccccc2)cc1` [1-[4-(benzyloxy)phenyl]-3-[4-({4-oxo-2H,4H,5H-pyrazolo[3,4-d]pyrimidin-2-yl}methyl)phenyl]urea] had a pKi of 6.97. On to `COc1ccc(NC(=O)Nc2ccc(Cn3cc4c(=O)[nH]cnc4n3)cc2)cc1` [1-(4-methoxyphenyl)-3-[4-({4-oxo-2H,4H,5H-pyrazolo[3,4-d]pyrimidin-2-yl}methyl)phenyl]urea], for which the pKi is 7.55. Against the preceding molecule, the pKi is 0.58 log units higher. The molecule `O=C(Nc1ccc(Cn2cc3c(=O)[nH]cnc3n2)cc1)Nc1ccc(C(F)(F)F)cc1` [3-[4-({4-oxo-2H,4H,5H-pyrazolo[3,4-d]pyrimidin-2-yl}methyl)phenyl]-1-[4-(trifluoromethyl)phenyl]urea] had a pKi of 9.80. `O=C(Cc1ccccc1)Nc1ccc(Cn2cc3c(=O)[nH]cnc3n2)cc1` [N-[4-({4-oxo-2H,4H,5H-pyrazolo[3,4-d]pyrimidin-2-yl}methyl)phenyl]-2-phenylacetamide] gave a pKi of 7.32. `O=C(Nc1ccc(Cn2cc3c(=O)[nH]cnc3n2)cc1)c1ccccc1` [N-[4-({4-oxo-2H,4H,5H-pyrazolo[3,4-d]pyrimidin-2-yl}methyl)phenyl]benzamide]: the pKi is 7.90. The molecule `O=C(Nc1ccc(Cc2ccccc2)cc1)Nc1ccc(Cn2cc3c(=O)[nH]cnc3n2)cc1` [1-(4-benzylphenyl)-3-[4-({4-oxo-2H,4H,5H-pyrazolo[3,4-d]pyrimidin-2-yl}methyl)phenyl]urea] showed a pKi of 6.73. This pKi lies 1.17 log units lower than the previous one.

For `O=C(Nc1ccccc1)Nc1ccc(Cn2cc3c(=O)[nH]cnc3n2)cc1` [3-[4-({4-oxo-2H,4H,5H-pyrazolo[3,4-d]pyrimidin-2-yl}methyl)phenyl]-1-phenylurea], the pKi was 8.62.

As to `O=C(Nc1ccc(Cn2cc3c(=O)[nH]cnc3n2)cc1)c1ccc(C(F)(F)F)cc1` [N-[4-({4-oxo-2H,4H,5H-pyrazolo[3,4-d]pyrimidin-2-yl}methyl)phenyl]-4-(trifluoromethyl)benzamide], the pKi is 9.29. Compared with the last molecule, the pKi is 0.67 log units higher. The figure for `CCCCCC[C@H]([C@H](C)O)n1cnc2c(N)ncnc21` [(2S,3R)-3-(6-amino-9H-purin-9-yl)nonan-2-ol] is 8.94; for `O=C(NCc1ccccc1)Nc1ccc(Cn2cc3c(=O)[nH]cnc3n2)cc1` [1-benzyl-3-[4-({4-oxo-2H,4H,5H-pyrazolo[3,4-d]pyrimidin-2-yl}methyl)phenyl]urea] it is 7.07; for `O=C(Nc1ccc(F)cc1)Nc1ccc(Cn2cc3c(=O)[nH]cnc3n2)cc1` [1-(4-fluorophenyl)-3-[4-({4-oxo-2H,4H,5H-pyrazolo[3,4-d]pyrimidin-2-yl}methyl)phenyl]urea] it is 8.94. Molecule `COc1ccc(C(=O)Nc2ccc(Cn3cc4c(=O)[nH]cnc4n3)cc2)cc1` [4-methoxy-N-[4-({4-oxo-2H,4H,5H-pyrazolo[3,4-d]pyrimidin-2-yl}methyl)phenyl]benzamide] showed a pKi of 7.81. This pKi is 1.13 log units lower than that of the molecule before.

The molecule `CN(C)c1ccc(NC(=O)Nc2ccc(Cn3cc4c(=O)[nH]cnc4n3)cc2)cc1` [1-[4-(dimethylamino)phenyl]-3-[4-({4-oxo-2H,4H,5H-pyrazolo[3,4-d]pyrimidin-2-yl}methyl)phenyl]urea] showed a pKi of 8.70.
